# Assay results from PubChem BioAssay (NCI).
#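 Each compound was tested at five concentrations against cells in 96-well plates for 48 hours. At the GI50, growth is halved. The concentration for full growth arrest is given as TGI.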
# Assays:
# Assay in all cases: NCI anticancer screen, dose series, 48 h
# SF-539 CNS = tested on: SF-539 CNS
# NCI/ADR-RES ovarian = tested on: NCI/ADR-RES ovarian
# HOP-92 NSCLC = tested on: HOP-92 NSCLC
# EKVX NSCLC = tested on: EKVX NSCLC
# OVCAR-8 ovarian = tested on: OVCAR-8 ovarian
# HCC-2998 colon = tested on: HCC-2998 colon
# SN12C renal = tested on: SN12C renal
# SNB-19 CNS = tested on: SNB-19 CNS
# RPMI-8226 leukemia = tested on: RPMI-8226 leukemia
# SK-OV-3 ovarian = tested on: SK-OV-3 ovarian
# CCRF-CEM leukemia = tested on: CCRF-CEM leukemia
# UACC-257 melanoma = tested on: UACC-257 melanoma
# IGROV1 ovarian = tested on: IGROV1 ovarian
# SF-295 CNS = tested on: SF-295 CNS
# LOX IMVI melanoma = tested on: LOX IMVI melanoma
# CAKI-1 renal = tested on: CAKI-1 renal
# MALME-3M melanoma = tested on: MALME-3M melanoma
# T-47D breast = tested on: T-47D breast
# A549 NSCLC = tested on: A549 NSCLC
# MDA-MB-231 breast = tested on: MDA-MB-231 breast
# HS 578T breast = tested on: HS 578T breast
# UACC-62 melanoma = tested on: UACC-62 melanoma
# HOP-62 NSCLC = tested on: HOP-62 NSCLC
# OVCAR-4 ovarian = tested on: OVCAR-4 ovarian
# MDA-MB-435 = tested on: MDA-MB-435
# NCI-H226 lung = tested on: NCI-H226 lung
# HCT-15 colon = tested on: HCT-15 colon
# UO-31 renal = tested on: UO-31 renal
# PC-3 prostate = tested on: PC-3 prostate
# SR leukemia = tested on: SR leukemia
# NCI-H460 lung = tested on: NCI-H460 lung
# OVCAR-5 ovarian = tested on: OVCAR-5 ovarian
# BT-549 breast = tested on: BT-549 breast
# SK-MEL-5 melanoma = tested on: SK-MEL-5 melanoma
# KM12 colon = tested on: KM12 colon
# M14 melanoma = tested on: M14 melanoma
# HT29 colon = tested on: HT29 colon
# DU-145 prostate = tested on: DU-145 prostate
# SK-MEL-2 melanoma = tested on: SK-MEL-2 melanoma
# SK-MEL-28 melanoma = tested on: SK-MEL-28 melanoma
# U251 CNS = tested on: U251 CNS
# SNB-75 CNS = tested on: SNB-75 CNS
# COLO 205 colon = tested on: COLO 205 colon
# RXF 393 renal = tested on: RXF 393 renal
# K-562 leukemia = tested on: K-562 leukemia
# SW-620 colon = tested on: SW-620 colon
# SF-268 CNS = tested on: SF-268 CNS
# ACHN renal = tested on: ACHN renal
# TK-10 renal = tested on: TK-10 renal
# HL-60(TB) leukemia = tested on: HL-60(TB) leukemia
# HCT-116 colon = tested on: HCT-116 colon
# 786-0 renal = tested on: 786-0 renal
# A498 renal = tested on: A498 renal
smiles,measurement,setting,value
COc1ccc(N2CCN(C3=C(Cl)C(=O)c4ncccc4C3=O)CC2)cc1,GI50,SF-539 CNS,7.66 µM
same,TGI,SF-539 CNS,21.2 µM
same,GI50,NCI/ADR-RES ovarian,6.74 µM
same,TGI,NCI/ADR-RES ovarian,28.6 µM
same,GI50,HOP-92 NSCLC,1.49 µM
same,TGI,HOP-92 NSCLC,3.03 µM
same,GI50,EKVX NSCLC,2.45 µM
same,TGI,EKVX NSCLC,7.05 µM
same,GI50,OVCAR-8 ovarian,4.87 µM
same,TGI,OVCAR-8 ovarian,17.9 µM
same,GI50,HCC-2998 colon,11.7 µM
same,TGI,HCC-2998 colon,26.5 µM
same,GI50,SN12C renal,11.1 µM
same,TGI,SN12C renal,25.6 µM
same,GI50,SNB-19 CNS,16.9 µM
same,TGI,SNB-19 CNS,32.9 µM
same,GI50,RPMI-8226 leukemia,2.69 µM
same,TGI,RPMI-8226 leukemia,7.32 µM
same,GI50,SK-OV-3 ovarian,12.2 µM
same,TGI,SK-OV-3 ovarian,25.2 µM
same,GI50,CCRF-CEM leukemia,2.8 µM
same,TGI,CCRF-CEM leukemia,> 100 µM
same,GI50,UACC-257 melanoma,2.86 µM
same,TGI,UACC-257 melanoma,8.41 µM
same,GI50,IGROV1 ovarian,3.25 µM
same,TGI,IGROV1 ovarian,11.6 µM
same,GI50,SF-295 CNS,13.9 µM
same,TGI,SF-295 CNS,28.3 µM
same,GI50,LOX IMVI melanoma,1.75 µM
same,TGI,LOX IMVI melanoma,3.56 µM
same,GI50,CAKI-1 renal,4.72 µM
same,TGI,CAKI-1 renal,17.1 µM
same,GI50,MALME-3M melanoma,2.06 µM
same,TGI,MALME-3M melanoma,6.05 µM
same,GI50,T-47D breast,1.78 µM
same,TGI,T-47D breast,4.26 µM
same,GI50,A549 NSCLC,15.9 µM
same,TGI,A549 NSCLC,35.2 µM
same,GI50,MDA-MB-231 breast,1.66 µM
same,TGI,MDA-MB-231 breast,3.26 µM
same,GI50,HS 578T breast,14.1 µM
same,TGI,HS 578T breast,39 µM
same,GI50,UACC-62 melanoma,5.99 µM
same,TGI,UACC-62 melanoma,19.3 µM
same,GI50,HOP-62 NSCLC,19.1 µM
same,TGI,HOP-62 NSCLC,38 µM
same,GI50,OVCAR-4 ovarian,2.18 µM
same,TGI,OVCAR-4 ovarian,5.36 µM
same,GI50,MDA-MB-435,1.94 µM
same,TGI,MDA-MB-435,3.68 µM
same,GI50,NCI-H226 lung,16.2 µM
same,TGI,NCI-H226 lung,35.9 µM
same,GI50,HCT-15 colon,2.66 µM
same,TGI,HCT-15 colon,11.3 µM
same,GI50,UO-31 renal,2 µM
same,TGI,UO-31 renal,6.83 µM
same,GI50,PC-3 prostate,13.8 µM
same,TGI,PC-3 prostate,29.1 µM
same,GI50,SR leukemia,2.27 µM
same,TGI,SR leukemia,6.59 µM
same,GI50,NCI-H460 lung,5.86 µM
same,TGI,NCI-H460 lung,19.9 µM
same,GI50,OVCAR-5 ovarian,16.2 µM
same,TGI,OVCAR-5 ovarian,30.3 µM
same,GI50,BT-549 breast,4.23 µM
same,TGI,BT-549 breast,14.1 µM
same,GI50,SK-MEL-5 melanoma,12.8 µM
same,TGI,SK-MEL-5 melanoma,25.5 µM
same,GI50,KM12 colon,18.4 µM
same,TGI,KM12 colon,34.7 µM
same,GI50,M14 melanoma,3.04 µM
same,TGI,M14 melanoma,10.5 µM
same,GI50,HT29 colon,4.71 µM
same,TGI,HT29 colon,18.2 µM
same,GI50,DU-145 prostate,5.93 µM
same,TGI,DU-145 prostate,18.4 µM
same,GI50,SK-MEL-2 melanoma,12 µM
same,TGI,SK-MEL-2 melanoma,25.4 µM
same,GI50,SK-MEL-28 melanoma,3.8 µM
same,TGI,SK-MEL-28 melanoma,13.2 µM
same,GI50,U251 CNS,10.7 µM
same,TGI,U251 CNS,24.1 µM
same,GI50,SNB-75 CNS,14.3 µM
same,TGI,SNB-75 CNS,28.8 µM
same,GI50,COLO 205 colon,2.01 µM
same,TGI,COLO 205 colon,4.04 µM
same,GI50,RXF 393 renal,2.61 µM
same,TGI,RXF 393 renal,8.37 µM
same,GI50,K-562 leukemia,3.03 µM
same,TGI,K-562 leukemia,12 µM
same,GI50,SW-620 colon,1.63 µM
same,TGI,SW-620 colon,3.79 µM
same,GI50,SF-268 CNS,19.2 µM
same,TGI,SF-268 CNS,50.1 µM
same,GI50,ACHN renal,1.78 µM
same,TGI,ACHN renal,3.37 µM
same,GI50,TK-10 renal,4.11 µM
same,TGI,TK-10 renal,11.6 µM
same,GI50,HL-60(TB) leukemia,1.48 µM
same,TGI,HL-60(TB) leukemia,4.46 µM
same,GI50,HCT-116 colon,1.92 µM
same,TGI,HCT-116 colon,3.85 µM
same,GI50,786-0 renal,15.9 µM
same,TGI,786-0 renal,29.5 µM
same,GI50,A498 renal,15 µM
same,TGI,A498 renal,29.1 µM
